Laboratory results published in patent EP1172443A1, “METHOD FOR SCREENING CYSTEINE PROTEASE INHIBITOR” (YAMANOUCHI PHARMACEUTICAL CO. LTD., priority 1999, dated 2000).
Peptide text beside a SMILES is read from it. * marks the point of attachment. Cbz = O=C(OCc1ccccc1)*; CH2F = FC*

Experiments:
caspase 3 [1] = molecular target: T1, caspase 3 (Homo sapiens, UniProt P42574); assay: Screening method of caspase 3 inhibitor, in the presence of zinc ion (substrate solution containing 3 mM ZnSO4); format: biochemical; details: for IC50: in the presence of zinc ion; for ratio (enzyme activity (+Zn)/enzyme activity (-Zn)): test compound 100 µM, 25 ng/100 µL human caspase 3, reaction time 15 minutes
T1 construct: the N-terminal region encoding a protein with a molecular weight of about 17 kDa (p17); C-terminal region encoding a protein with a molecular weight of about 12 kDa (p12); made in house; host or cells: Escherichia coli BL21 (DE3) pLysS, plasmid pET3a
T1 sequence (P42574 29-175 limits assumed): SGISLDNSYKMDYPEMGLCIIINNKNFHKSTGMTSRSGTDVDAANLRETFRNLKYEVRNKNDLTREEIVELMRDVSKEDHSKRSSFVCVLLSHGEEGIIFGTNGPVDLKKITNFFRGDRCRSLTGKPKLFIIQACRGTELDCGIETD
T1 sequence (P42574 176-277 limits assumed): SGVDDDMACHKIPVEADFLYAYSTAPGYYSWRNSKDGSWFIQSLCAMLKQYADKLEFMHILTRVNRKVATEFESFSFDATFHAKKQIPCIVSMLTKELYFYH
Procedure: (§1) From human brain cDNA, the N-terminal region encoding a protein with a molecular weight of about 17 kDa (p17) and C-terminal region encoding a protein with a molecular weight of about 12 kDa (p12) were amplified by PCR, and then subcloned into an Escherichia coli expression plasmid (pET3a). Using these plasmids, a host bacterium for expressing proteins (BL21 (DE3) pLysS) was transformed. Then, the transformed bacterium was cultured in M9 medium and an active caspase 3 was prepared. Firstly, fungus body recovered from M9 medium was broken by sonication and an inclusion body was recovered by centrifugation. The inclusion body was solubilized under denatured conditions using 3M guanidine solution, and after mixing with p17 polypeptide and p12 polypeptide, diluted with a dialysis solution. The whole was left at room temperature for 1 hour at this situation, and after regeneration, concentrated. After the sample was dialyzed to exchange the buffer solution, insoluble proteins were removed by ultracentrifugation (100,000 X G, 30 minutes). Upon quantitative protein determination, about 30 mg of a protein was recovered.
Solution A comprising composition of 50 mM HEPES, pH 7.5, 10% (w/v) saccharose, and 0.1% (w/v) 3-[(3-cholamidopropyl)dimethylammonio]-1-propane sulfonate (CHAPS) was used as the base of a liquid for enzymatic reaction with adding a test compound, if necessary. […] In a control experiment, caspase 3 mixed with DMSO instead of the test compound was used. Then, 100 µL of 50 µM Ac-Asp-Glu-Val-Asp-MCA (Solution A, Peptide Kenkyusyo, 3171-v) as a substrate solution were added thereto to start reaction. Time course of the decomposition of the substrate were measured on a fluorescent photometer (Corona Denki, MTP-32, excitation wavelength/360 nm, emission waverangeth/450 nm or SLT, fluostar, excitation wavelength/380 nm, emission wavelength/460 nm) and an enzyme activity of the test compound-added group relative to the control was calculated.
(§2) The effects of the test compound at various concentrations on the enzyme activity were measured in a similar manner to the case in the absence of zinc ion as described in the section 1). However, a substrate solution containing 3 mM ZnSO4 was used.
The enzyme activities calculated in the absence of zinc ion (-Zn) and in the presence of zinc ion (+Zn) were compared (enzyme activity (+Zn)/enzyme activity (-Zn)).

caspase 3 [2] = molecular target: T1, caspase 3; assay: Screening method of caspase 3 inhibitor, in the absence of zinc ion (fluorogenic substrate Ac-Asp-Glu-Val-Asp-MCA); format: biochemical; details: for inhibition at 100 µM: at 100 µM in the absence of zinc ion, read-out: enzyme activity inhibited
Procedure: as §1
Solution A comprising composition of 50 mM HEPES, pH 7.5, 10% (w/v) saccharose, and 0.1% (w/v) 3-[(3-cholamidopropyl)dimethylammonio]-1-propane sulfonate (CHAPS) was used as the base of a liquid for enzymatic reaction with adding a test compound, if necessary. A 10 ng/100 µL human caspase 3 solution (Solution B: Solution A + 10 mM dithiothreitol (DTT)) and a test compound at different concentrations were mixed and the mixture was left at room temperature for 30 minutes. In a control experiment, caspase 3 mixed with DMSO instead of the test compound was used. […] Time course of the decomposition of the substrate were measured on a fluorescent photometer (Corona Denki, MTP-32, excitation wavelength/360 nm, emission waverangeth/450 nm or SLT, fluostar, excitation wavelength/380 nm, emission wavelength/460 nm) and an enzyme activity of the test compound-added group relative to the control was calculated.

caspase 3 [3] = molecular target: T1, caspase 3; assay: Examination of caspase 3 inhibitory mode in the presence of zinc (Lineweaver-Burk plots); format: biochemical
Procedure: Solution A comprising composition of 50 mM HEPES, pH 7.5, 10% (w/v) saccharose, and 0.1% (w/v) 3-[(3-cholamidopropyl)dimethylammonio]-1-propane sulfonate (CHAPS) was used as the base of a liquid for enzymatic reaction with adding a test compound, if necessary. A 10 ng/100 µL human caspase 3 solution (Solution B: Solution A + 10 mM dithiothreitol (DTT)) and a test compound at different concentrations were mixed and the mixture was left at room temperature for 30 minutes. In a control experiment, caspase 3 mixed with DMSO instead of the test compound was used. Then, 100 µL of 50 µM Ac-Asp-Glu-Val-Asp-MCA (Solution A, Peptide Kenkyusyo, 3171-v) as a substrate solution were added thereto to start reaction. Time course of the decomposition of the substrate were measured on a fluorescent photometer (Corona Denki, MTP-32, excitation wavelength/360 nm, emission waverangeth/450 nm or SLT, fluostar, excitation wavelength/380 nm, emission wavelength/460 nm) and an enzyme activity of the test compound-added group relative to the control was calculated.
as §2
The caspase 3 inhibitory mode of Compound A in the presence of zinc was examined according to the methods 1) and 2) of Example 3. […] The inhibitory mode was analyzed with Lineweaver-Burk plots (double reciprocal plots).
The caspase 3 inhibitory mode of Compound B in the presence of zinc was examined according to the methods 1) and 2) of Example 3. […] The inhibitory mode was analyzed with Lineweaver-Burk plots (double reciprocal plots).
The caspase 3 inhibitory mode of Compound C in the presence of zinc was examined according to the methods 1) and 2) of Example 3. […] The inhibitory mode was analyzed with Lineweaver-Burk plots (double reciprocal plots).

rat hippocampal neuron = assay: Apoptosis inhibitory action: suppression of DNA fragmentation induced by Etoposide; format: cell-based
Procedure: Cultured rat hippocampal neuron was prepared according to a usual method (Neurochem. Int., 31(5), 715-722, 1997). Brain was taken out of a fetus of rat at day 19 of gestation, and hippocampus was picked up under a stereomicroscope. The hippocampus was treated with an enzyme, dispersed by pipetting several times, and cell clusters were removed through a filter to prepare a cell suspension. The cell was cultured at a concentration of 1.2 x 10^5 cells/cm^2 in a 12-well plate coated with polylysine. A "culture medium for neuron" manufactured by Sumitomo Bakelite Co., Ltd. was used as the culture liquid. The neuronal cell at 13 to 16 days of culture was used. Etoposide was employed for inducing apoptosis of the neuronal cell. The induction of DNA fragments was evaluated as a marker of apoptosis.
Cell stimulation was carried out by replacing the cell culture medium with a serum-free medium containing 3 µg/mL Etoposide. After 6 hours from the start of the stimulation, the cell was recovered. TaKaRa ApopLadder Ex kit was used for the extraction of fragmented DNA. The fragmented DNA were subjected to electrophoresis followed by staining with CYBR Green, and the fluorescence intensity of the DNA was measured by means of a scanner manufactured by Molecular Dynamics Co.

SMILES | ratio (enzyme activity (+Zn)/enzyme activity (-Zn)) (caspase 3 [1]) | caspase 3 inhibitory mode (caspase 3 [3]) | IC50 (caspase 3 [1]) | inhibition at 100 µM (caspase 3 [2]) | other results
COC(=O)C[C@H](NC(=O)[C@H](C)NC(=O)[C@@H](NC(=O)OCc1ccccc1)C(C)C)C(=O)CF [z-VAD.FMK, z-Val-Ala-Asp(OMe)-CH2F, reference compound] (Cbz-Val-Ala-Asp(OMe)-CH2F) |  |  |  |  | effect of zinc ion on the caspase 3 inhibitory activity (caspase 3 [1]; comparison of presence and absence of zinc ion): no remarkable enhancing effect; IC50 (caspase 3 [1]; reaction time 30 minutes): 0.55 µM; IC50 (caspase 3 [2]; in the absence of zinc ion, reaction time 30 minutes): 0.51 µM
ON=C(c1nc2ccccc2[nH]1)c1nc2ccccc2[nH]1 [Compound B, bis(1H-benzimidazol-2-yl)ketone oxime] | 0.44 | substrate-competitive and reversible |  |  | 
c1ccc2[nH]c(Cc3nc4ccccc4[nH]3)nc2c1 [Compound A, bis(1H-benzimidazol-2-yl)methane] | 0.37 | substrate-competitive and reversible |  |  | 
CCCN1C(=O)C2(Oc3c(c(=O)n(CCC)c4ncccc34)S2)C(=O)c2cccnc21 (centres unmarked) [Compound C, 1,5'-dipropylspiro[1,8-naphthyridine-3(2H),2'-[1,3]oxathiolo[4,5-c][1,8]naphthyridine]-2,4,4' (1H,5'H)-trione] |  | substrate-competitive and reversible | 1.2 µM | 17% | IC50 (rat hippocampal neuron; Rattus norvegicus, Hippocampal neuron, 3 µg/mL Etoposide, 6 hours, compound at 10, 25, 50 µM, no zinc added to medium): 17 µM
CCCN1C(=O)C2(Oc3c(c(=O)n(CCC)c4ccccc34)S2)C(=O)c2ccccc21 (centres unmarked) [Compound D] |  |  | 0.35 µM | 13% | apoptosis inhibitory action (rat hippocampal neuron; at a concentration of 33.3 µM, added together with Etoposide): strong apoptosis inhibitory action
